{"source": "ChEMBL document CHEMBL2434943", "about": "“Elaboration of thorough simplified vinca alkaloids as antimitotic agents based on pharmacophore similarity” (Eur J Med Chem, 2013)", "key": {"MCF7 [1]": {"tested_on": "MCF7", "assay": "Cell cycle arrest in human MCF7 cells assessed as accumulation at G0/G1 phase at 3 uM after 36 hrs by propidium iodide staining-based flow cytometric analysis (reference value: 67.3%)", "type": "functional"}, "[2]": {"assay": "Cytotoxicity against KM mouse splenic lymphocytes assessed as growth inhibition after 72 hrs by MTT assay", "conditions": "Splenic lymphocyte"}, "MCF7 [3]": {"tested_on": "MCF7", "assay": "Cell cycle arrest in human MCF7 cells assessed as accumulation at S phase at 1 uM after 36 hrs by propidium iodide staining-based flow cytometric analysis (reference value: 12.5%)", "type": "functional"}, "HepG2 [4]": {"tested_on": "HepG2", "assay": "Cytotoxicity against adriamycin-resistant human HepG2 cells assessed as growth inhibition after 72 hrs by MTT assay", "type": "functional, cell-based", "conditions": "HepG2, 72 h"}, "MCF7 [5]": {"tested_on": "MCF7", "assay": "Cell cycle arrest in human MCF7 cells assessed as accumulation at subG1 phase at 5 uM after 36 hrs by propidium iodide staining-based flow cytometric analysis (reference value: 1.2%)", "type": "functional"}, "HepG2 [6]": {"tested_on": "HepG2", "assay": "Cell cycle arrest in human HepG2 cells assessed as accumulation at G0/G1 phase at 5 uM after 48 hrs by propidium iodide staining-based flow cytometric analysis (reference value: 65.9%)", "type": "functional"}, "HepG2 [7]": {"tested_on": "HepG2", "assay": "Cell cycle arrest in human HepG2 cells assessed as accumulation at S phase at 5 uM after 48 hrs by propidium iodide staining-based flow cytometric analysis (reference value: 10.5%)", "type": "functional"}, "HepG2 [8]": {"tested_on": "HepG2", "assay": "Cytotoxicity against human HepG2 cells assessed as growth inhibition after 72 hrs by MTT assay", "type": "functional, cell-based", "conditions": "HepG2, 72 h"}, "HepG2 [9]": {"tested_on": "HepG2", "assay": "Cell cycle arrest in human HepG2 cells assessed as accumulation at subG1 phase at 3 uM after 48 hrs by propidium iodide staining-based flow cytometric analysis (reference value: 1.2%)", "type": "functional"}, "MCF7 [10]": {"tested_on": "MCF7", "assay": "Cell cycle arrest in human MCF7 cells assessed as accumulation at S phase at 3 uM after 36 hrs by propidium iodide staining-based flow cytometric analysis (reference value: 12.5%)", "type": "functional"}, "HepG2 [11]": {"tested_on": "HepG2", "assay": "Cell cycle arrest in human HepG2 cells assessed as accumulation at S phase at 3 uM after 48 hrs by propidium iodide staining-based flow cytometric analysis (reference value: 10.5%)", "type": "functional"}, "HepG2 [12]": {"tested_on": "HepG2", "assay": "Cell cycle arrest in human HepG2 cells assessed as accumulation at G2/M phase at 3 uM after 48 hrs by propidium iodide staining-based flow cytometric analysis (reference value: 22.4%)", "type": "functional"}, "Tubulin (Homo sapiens)": {"molecular_target": "Tubulin (Homo sapiens) (UniProt P68371+Q9H4B7+P0DPH7+P68366+Q13509+Q71U36+P04350+Q3ZCM7+P07437+P68363+Q9BQE3+Q6PEY2+Q13885+Q9BVA1+Q9BUF5)", "assay": "Inhibition of tubulin polymerization (unknown origin) at 3 to 10 uM after 90 mins", "type": "protein-complex assay"}, "K562": {"tested_on": "K562", "assay": "Cytotoxicity against human K562 cells assessed as growth inhibition after 72 hrs by MTT assay", "type": "functional, cell-based", "conditions": "K562, 72 h"}, "HepG2 [13]": {"tested_on": "HepG2", "assay": "Cell cycle arrest in human HepG2 cells assessed as accumulation at G0/G1 phase at 10 uM after 48 hrs by propidium iodide staining-based flow cytometric analysis (reference value: 65.9%)", "type": "functional"}, "MCF7 [14]": {"tested_on": "MCF7", "assay": "Cell cycle arrest in human MCF7 cells assessed as accumulation at G2/M phase at 5 uM after 36 hrs by propidium iodide staining-based flow cytometric analysis (reference value: 19%)", "type": "functional"}, "MCF7 [15]": {"tested_on": "MCF7", "assay": "Cell cycle arrest in human MCF7 cells assessed as accumulation at subG1 phase at 1 uM after 36 hrs by propidium iodide staining-based flow cytometric analysis (reference value: 1.2%)", "type": "functional"}, "MCF7 [16]": {"tested_on": "MCF7", "assay": "Cell cycle arrest in human MCF7 cells assessed as accumulation at S phase at 5 uM after 36 hrs by propidium iodide staining-based flow cytometric analysis (reference value: 12.5%)", "type": "functional"}, "MCF7 [17]": {"tested_on": "MCF7", "assay": "Cell cycle arrest in human MCF7 cells assessed as accumulation at G0/G1 phase at 1 uM after 36 hrs by propidium iodide staining-based flow cytometric analysis (reference value: 67.3%)", "type": "functional"}, "MCF7 [18]": {"tested_on": "MCF7", "assay": "Cell cycle arrest in human MCF7 cells assessed as accumulation at G2/M phase at 1 uM after 36 hrs by propidium iodide staining-based flow cytometric analysis (reference value: 19%)", "type": "functional"}, "HepG2 [19]": {"tested_on": "HepG2", "assay": "Antimitotic activity in human HepG2 cells assessed as disruption of microtubule network at 5 uM by DAPI staining-based laser scanning confocal microscopic analysis", "type": "functional, cell-based", "conditions": "TDE = time-dependent effect"}, "HepG2 [20]": {"tested_on": "HepG2", "assay": "Cell cycle arrest in human HepG2 cells assessed as accumulation at subG1 phase at 10 uM after 48 hrs by propidium iodide staining-based flow cytometric analysis (reference value: 1.2%)", "type": "functional"}, "MCF7 [21]": {"tested_on": "MCF7", "assay": "Cytotoxicity against human MCF7 cells assessed as growth inhibition after 72 hrs by MTT assay", "type": "functional, cell-based", "conditions": "MCF7, 72 h"}, "MCF7 [22]": {"tested_on": "MCF7", "assay": "Cell cycle arrest in human MCF7 cells assessed as accumulation at G0/G1 phase at 5 uM after 36 hrs by propidium iodide staining-based flow cytometric analysis (reference value: 67.3%)", "type": "functional"}, "HepG2 [23]": {"tested_on": "HepG2", "assay": "Cell cycle arrest in human HepG2 cells assessed as accumulation at S phase at 10 uM after 48 hrs by propidium iodide staining-based flow cytometric analysis (reference value: 10.5%)", "type": "functional"}, "HepG2 [24]": {"tested_on": "HepG2", "assay": "Cell cycle arrest in human HepG2 cells assessed as accumulation at G0/G1 phase at 3 uM after 48 hrs by propidium iodide staining-based flow cytometric analysis (reference value: 65.9%)", "type": "functional"}, "HepG2 [25]": {"tested_on": "HepG2", "assay": "Cell cycle arrest in human HepG2 cells assessed as accumulation at G2/M phase at 10 uM after 48 hrs by propidium iodide staining-based flow cytometric analysis (reference value: 22.4%)", "type": "functional"}, "HepG2 [26]": {"tested_on": "HepG2", "assay": "Antimitotic activity in human HepG2 cells assessed as cell morphological changes at 5 uM after 3 to 12 hrs by DAPI staining-based laser scanning confocal microscopic analysis", "type": "functional"}, "HepG2 [27]": {"tested_on": "HepG2", "assay": "Cell cycle arrest in human HepG2 cells assessed as accumulation at subG1 phase at 5 uM after 48 hrs by propidium iodide staining-based flow cytometric analysis (reference value: 1.2%)", "type": "functional"}, "MDA-MB-231": {"tested_on": "MDA-MB-231", "assay": "Cytotoxicity against human MDA-MB-231 cells assessed as growth inhibition after 72 hrs by MTT assay", "type": "functional, cell-based", "conditions": "MDA-MB-231, 72 h"}, "MCF7 [28]": {"tested_on": "MCF7", "assay": "Cell cycle arrest in human MCF7 cells assessed as accumulation at G2/M phase at 3 uM after 36 hrs by propidium iodide staining-based flow cytometric analysis (reference value: 19%)", "type": "functional"}, "MCF7 [29]": {"tested_on": "MCF7", "assay": "Cell cycle arrest in human MCF7 cells assessed as accumulation at subG1 phase at 3 uM after 36 hrs by propidium iodide staining-based flow cytometric analysis (reference value: 1.2%)", "type": "functional"}, "HepG2 [30]": {"tested_on": "HepG2", "assay": "Cell cycle arrest in human HepG2 cells assessed as accumulation at G2/M phase at 5 uM after 48 hrs by propidium iodide staining-based flow cytometric analysis (reference value: 22.4%)", "type": "functional"}}, "note": "Active and inactive are the calls of the source. The calls are words filed in the database; no cut-off is given here."}
{"smiles": "CC1(C)C(/C=C/c2cccc([N+](=O)[O-])c2)=Nc2ccccc21", "values": [{"measurement": "Activity", "setting": "MCF7 [1]", "result": 40.6, "unit": "%"}, {"measurement": "IC50", "setting": "[2]", "result": 18.8, "unit": "µM"}, {"measurement": "Activity", "setting": "MCF7 [3]", "result": 14, "unit": "%"}, {"measurement": "IC50", "setting": "HepG2 [4]", "result": 2.27, "unit": "µM"}, {"measurement": "Activity", "setting": "MCF7 [5]", "result": 21.4, "unit": "%"}, {"measurement": "Activity", "setting": "HepG2 [6]", "result": 15.3, "unit": "%"}, {"measurement": "Activity", "setting": "HepG2 [7]", "result": 9.9, "unit": "%"}, {"measurement": "IC50", "setting": "HepG2 [8]", "result": 5.04, "unit": "µM"}, {"measurement": "Activity", "setting": "HepG2 [9]", "result": 2.9, "unit": "%"}, {"measurement": "Activity", "setting": "MCF7 [10]", "result": 10, "unit": "%"}, {"measurement": "Activity", "setting": "HepG2 [11]", "result": 8.2, "unit": "%"}, {"measurement": "Activity", "setting": "HepG2 [12]", "result": 37.6, "unit": "%"}, {"measurement": "inhibition", "setting": "Tubulin (Homo sapiens)", "result": "Active"}, {"measurement": "IC50", "setting": "K562", "result": 4.38, "unit": "µM"}, {"measurement": "Activity", "setting": "HepG2 [13]", "result": 36.8, "unit": "%"}, {"measurement": "Activity", "setting": "MCF7 [14]", "result": 46.7, "unit": "%"}, {"measurement": "Activity", "setting": "MCF7 [15]", "result": 1.2, "unit": "%"}, {"measurement": "Activity", "setting": "MCF7 [16]", "result": 12.3, "unit": "%"}, {"measurement": "Activity", "setting": "MCF7 [17]", "result": 56.8, "unit": "%"}, {"measurement": "Activity", "setting": "MCF7 [18]", "result": 28, "unit": "%"}, {"measurement": "Activity", "setting": "HepG2 [19]", "result": "tde"}, {"measurement": "Activity", "setting": "HepG2 [20]", "result": 2.5, "unit": "%"}, {"measurement": "IC50", "setting": "MCF7 [21]", "result": 0.89, "unit": "µM"}, {"measurement": "Activity", "setting": "MCF7 [22]", "result": 19.6, "unit": "%"}, {"measurement": "Activity", "setting": "HepG2 [23]", "result": 8.6, "unit": "%"}, {"measurement": "Activity", "setting": "HepG2 [24]", "result": 51.3, "unit": "%"}, {"measurement": "Activity", "setting": "HepG2 [25]", "result": 52.1, "unit": "%"}, {"measurement": "Activity", "setting": "HepG2 [26]", "result": "Active"}, {"measurement": "Activity", "setting": "HepG2 [27]", "result": 3.5, "unit": "%"}, {"measurement": "IC50", "setting": "MDA-MB-231", "result": 1.87, "unit": "µM"}, {"measurement": "Activity", "setting": "MCF7 [28]", "result": 39.7, "unit": "%"}, {"measurement": "Activity", "setting": "MCF7 [29]", "result": 9.7, "unit": "%"}, {"measurement": "Activity", "setting": "HepG2 [30]", "result": 71.3, "unit": "%"}]}
